ChEMBL document CHEMBL3763027, “Identification and characterization of potent, selective and metabolically stable IKKβ inhibitor” (Bioorg Med Chem Lett, 2016)

Key:
[1] = target: Serine/threonine-protein kinase pim-2 (Homo sapiens) (UniProt Q9P1W9); experiment: Inhibition of PIM2 (unknown origin) at 10 uM
Rattus norvegicus [2] = experiment: AUC (0 to infinity) in Sprague-Dawley rat at 2 mg/kg, po after 0.25 to 24 hrs; format: ADME, organism-based; design: dose 2 mg/kg, time infinity, route oral; details: in vivo
[3] = target: Cyclin-dependent kinase 5/CDK5 activator 1 (Homo sapiens) (UniProt Q00535+Q15078); experiment: Inhibition of CDK5/p25 (unknown origin) at 10 uM; format: protein-complex assay
[4] = target: Protein kinase C alpha type (Homo sapiens) (UniProt P17252); experiment: Inhibition of PKCalpha (unknown origin) at 10 uM
[5] = target: Angiopoietin-1 receptor (Homo sapiens) (UniProt Q02763); experiment: Inhibition of TIE2 (unknown origin) at 10 uM
Angiopoietin-1 receptor (Homo sapiens), sequence (Q02763 whole entry): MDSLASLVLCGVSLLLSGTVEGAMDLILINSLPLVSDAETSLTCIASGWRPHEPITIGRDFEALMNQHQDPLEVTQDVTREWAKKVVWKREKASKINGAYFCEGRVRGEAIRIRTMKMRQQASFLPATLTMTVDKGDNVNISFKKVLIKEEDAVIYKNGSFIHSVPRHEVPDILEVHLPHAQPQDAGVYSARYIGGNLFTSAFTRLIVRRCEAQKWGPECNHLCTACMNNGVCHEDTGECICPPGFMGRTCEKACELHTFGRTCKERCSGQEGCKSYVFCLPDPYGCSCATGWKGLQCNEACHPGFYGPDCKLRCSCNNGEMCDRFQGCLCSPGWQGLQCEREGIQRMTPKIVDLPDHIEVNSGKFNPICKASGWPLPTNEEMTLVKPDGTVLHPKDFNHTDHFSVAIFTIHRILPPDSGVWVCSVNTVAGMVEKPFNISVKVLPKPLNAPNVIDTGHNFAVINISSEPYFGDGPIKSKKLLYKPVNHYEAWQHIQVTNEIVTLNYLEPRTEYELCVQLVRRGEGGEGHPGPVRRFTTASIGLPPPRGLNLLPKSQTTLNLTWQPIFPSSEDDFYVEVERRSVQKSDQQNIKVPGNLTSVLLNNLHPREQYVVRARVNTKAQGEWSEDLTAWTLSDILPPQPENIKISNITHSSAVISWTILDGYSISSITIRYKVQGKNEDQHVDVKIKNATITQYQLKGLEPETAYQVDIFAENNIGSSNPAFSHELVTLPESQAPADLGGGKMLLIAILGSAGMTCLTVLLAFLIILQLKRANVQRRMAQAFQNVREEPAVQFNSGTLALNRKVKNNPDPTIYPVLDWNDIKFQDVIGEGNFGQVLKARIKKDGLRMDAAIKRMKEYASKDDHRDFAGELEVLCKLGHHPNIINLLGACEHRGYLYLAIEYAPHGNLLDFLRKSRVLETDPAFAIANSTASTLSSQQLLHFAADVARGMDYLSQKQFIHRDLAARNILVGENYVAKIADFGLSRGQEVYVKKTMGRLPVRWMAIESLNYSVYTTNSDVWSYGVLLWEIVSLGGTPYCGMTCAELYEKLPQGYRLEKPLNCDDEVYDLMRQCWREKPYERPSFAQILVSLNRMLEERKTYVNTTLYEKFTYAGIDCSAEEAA

Mus musculus [6] = experiment: Toxicity in female ICR mouse assessed as average body weight at 2000 mg/kg, po administered for 10 days measured 3 hrs post last dose (reference value: 18.9 +/- 0.9 g); format: organism-based; details: in vivo
Homo sapiens = species: Homo sapiens; experiment: Inhibition of PKA (unknown origin) at 10 uM
Mus musculus [7] = experiment: Toxicity in female ICR mouse assessed as average body weight at 2000 mg/kg, po administered for 2 days measured 3 hrs post last dose (reference value: 18.9 +/- 0.9 g); format: organism-based; details: in vivo
[8] = target: Mitogen-activated protein kinase 14 (Homo sapiens) (UniProt Q16539); experiment: Inhibition of MAPK14 (unknown origin) at 10 uM
[9] = target: Proto-oncogene tyrosine-protein kinase Src (Homo sapiens) (UniProt P12931); experiment: Inhibition of c-Src (unknown origin) at 10 uM
[10] = target: Serine/threonine-protein kinase TBK1 (Homo sapiens) (UniProt Q9UHD2); experiment: Inhibition of TBK1 (unknown origin) at 10 uM
Serine/threonine-protein kinase TBK1 (Homo sapiens), sequence (Q9UHD2 whole entry): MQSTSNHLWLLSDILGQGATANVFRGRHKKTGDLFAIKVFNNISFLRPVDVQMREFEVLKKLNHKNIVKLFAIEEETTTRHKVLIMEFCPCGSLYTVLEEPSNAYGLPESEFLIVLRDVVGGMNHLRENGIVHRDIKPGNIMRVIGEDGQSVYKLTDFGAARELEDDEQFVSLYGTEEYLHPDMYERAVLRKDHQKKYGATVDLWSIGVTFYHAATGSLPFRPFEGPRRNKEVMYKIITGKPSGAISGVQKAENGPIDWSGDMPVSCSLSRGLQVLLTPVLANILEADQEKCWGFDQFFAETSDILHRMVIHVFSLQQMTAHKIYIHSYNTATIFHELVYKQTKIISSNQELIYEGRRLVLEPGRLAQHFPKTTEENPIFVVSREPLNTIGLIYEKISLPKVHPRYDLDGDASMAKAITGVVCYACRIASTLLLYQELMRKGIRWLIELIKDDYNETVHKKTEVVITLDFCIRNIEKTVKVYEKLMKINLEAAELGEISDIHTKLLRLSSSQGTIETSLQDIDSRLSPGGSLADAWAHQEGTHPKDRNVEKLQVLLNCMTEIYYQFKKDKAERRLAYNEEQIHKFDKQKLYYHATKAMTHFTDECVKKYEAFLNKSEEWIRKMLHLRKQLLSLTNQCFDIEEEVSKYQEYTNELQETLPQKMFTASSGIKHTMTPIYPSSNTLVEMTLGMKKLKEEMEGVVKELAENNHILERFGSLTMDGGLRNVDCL

[11] = target: Serine/threonine-protein kinase Chk1 (Homo sapiens) (UniProt O14757); experiment: Inhibition of CHK1 (unknown origin) at 10 uM
Serine/threonine-protein kinase Chk1 (Homo sapiens), sequence (O14757 whole entry): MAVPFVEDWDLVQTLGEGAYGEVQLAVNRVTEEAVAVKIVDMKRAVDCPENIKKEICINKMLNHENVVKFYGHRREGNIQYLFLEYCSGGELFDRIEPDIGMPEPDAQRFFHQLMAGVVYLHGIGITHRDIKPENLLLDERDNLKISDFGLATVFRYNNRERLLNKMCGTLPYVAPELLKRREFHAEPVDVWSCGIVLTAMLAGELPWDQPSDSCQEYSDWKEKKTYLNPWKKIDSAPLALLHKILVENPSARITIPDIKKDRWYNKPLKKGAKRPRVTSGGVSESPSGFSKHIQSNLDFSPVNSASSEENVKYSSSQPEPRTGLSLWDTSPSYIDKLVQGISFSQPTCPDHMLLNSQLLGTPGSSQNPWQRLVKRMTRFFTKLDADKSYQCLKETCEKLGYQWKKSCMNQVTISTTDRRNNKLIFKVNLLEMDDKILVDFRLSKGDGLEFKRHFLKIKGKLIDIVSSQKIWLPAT

Mus musculus [12] = experiment: Toxicity in male ICR mouse assessed as average body weight at 2000 mg/kg, po administered for 14 days measured 3 hrs post last dose (reference value: 20.3 +/- 0.4 g); format: organism-based; details: in vivo
Mus musculus [13] = experiment: Toxicity in male ICR mouse assessed as average body weight at 2000 mg/kg, po administered for 7 days measured 3 hrs post last dose (reference value: 20.3 +/- 0.4 g); format: organism-based; details: in vivo
Mus musculus [14] = experiment: Toxicity in male ICR mouse assessed as average body weight at 2000 mg/kg, po administered for 3 days measured 3 hrs post last dose (reference value: 20.3 +/- 0.4 g); format: organism-based; details: in vivo
[15] = Cmax in Sprague-Dawley rat at 2 mg/kg, po after 0.25 to 24 hrs; format: ADME, organism-based; design: dose 2 mg/kg, route oral; details: in vivo
[16] = target: Ribosomal protein S6 kinase beta-1 (Homo sapiens) (UniProt P23443); experiment: Inhibition of P70S6K (unknown origin) at 10 uM
Ribosomal protein S6 kinase beta-1 (Homo sapiens), sequence (P23443 whole entry, looked up): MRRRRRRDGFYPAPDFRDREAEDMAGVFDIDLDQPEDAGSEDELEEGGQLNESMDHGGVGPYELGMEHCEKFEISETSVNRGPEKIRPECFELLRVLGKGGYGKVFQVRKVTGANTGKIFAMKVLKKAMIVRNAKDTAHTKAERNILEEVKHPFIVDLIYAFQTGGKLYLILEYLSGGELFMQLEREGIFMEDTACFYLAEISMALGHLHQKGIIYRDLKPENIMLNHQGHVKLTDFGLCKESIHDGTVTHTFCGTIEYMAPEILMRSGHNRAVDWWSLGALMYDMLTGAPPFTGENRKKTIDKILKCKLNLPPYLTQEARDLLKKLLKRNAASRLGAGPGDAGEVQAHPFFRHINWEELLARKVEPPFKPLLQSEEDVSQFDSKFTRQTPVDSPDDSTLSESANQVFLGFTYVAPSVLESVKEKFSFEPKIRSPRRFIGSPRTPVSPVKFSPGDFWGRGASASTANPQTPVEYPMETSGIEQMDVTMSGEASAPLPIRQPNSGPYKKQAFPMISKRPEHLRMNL

Rattus norvegicus [17] = experiment: Clearance in Sprague-Dawley rat at 2 mg/kg, po after 0.25 to 24 hrs; format: ADME, organism-based; details: in vivo
[18] = target: Fibroblast growth factor receptor 1 (Homo sapiens) (UniProt P11362); experiment: Inhibition of FGFR1 (unknown origin) at 10 uM
[19] = target: 3-phosphoinositide-dependent protein kinase 1 (Homo sapiens) (UniProt O15530); experiment: Inhibition of PDK1 (unknown origin) at 10 uM
[20] = Cmax in Sprague-Dawley rat at 1 mg/kg, iv after 0.25 to 24 hrs; format: ADME, organism-based; design: dose 1 mg/kg, route intravenous; details: in vivo
[21] = target: Tyrosine-protein kinase ABL1 (Homo sapiens) (UniProt P00519); experiment: Inhibition of Abl1 (unknown origin) at 10 uM
Tyrosine-protein kinase ABL1 (Homo sapiens), sequence (P00519 whole entry, canonical isoform): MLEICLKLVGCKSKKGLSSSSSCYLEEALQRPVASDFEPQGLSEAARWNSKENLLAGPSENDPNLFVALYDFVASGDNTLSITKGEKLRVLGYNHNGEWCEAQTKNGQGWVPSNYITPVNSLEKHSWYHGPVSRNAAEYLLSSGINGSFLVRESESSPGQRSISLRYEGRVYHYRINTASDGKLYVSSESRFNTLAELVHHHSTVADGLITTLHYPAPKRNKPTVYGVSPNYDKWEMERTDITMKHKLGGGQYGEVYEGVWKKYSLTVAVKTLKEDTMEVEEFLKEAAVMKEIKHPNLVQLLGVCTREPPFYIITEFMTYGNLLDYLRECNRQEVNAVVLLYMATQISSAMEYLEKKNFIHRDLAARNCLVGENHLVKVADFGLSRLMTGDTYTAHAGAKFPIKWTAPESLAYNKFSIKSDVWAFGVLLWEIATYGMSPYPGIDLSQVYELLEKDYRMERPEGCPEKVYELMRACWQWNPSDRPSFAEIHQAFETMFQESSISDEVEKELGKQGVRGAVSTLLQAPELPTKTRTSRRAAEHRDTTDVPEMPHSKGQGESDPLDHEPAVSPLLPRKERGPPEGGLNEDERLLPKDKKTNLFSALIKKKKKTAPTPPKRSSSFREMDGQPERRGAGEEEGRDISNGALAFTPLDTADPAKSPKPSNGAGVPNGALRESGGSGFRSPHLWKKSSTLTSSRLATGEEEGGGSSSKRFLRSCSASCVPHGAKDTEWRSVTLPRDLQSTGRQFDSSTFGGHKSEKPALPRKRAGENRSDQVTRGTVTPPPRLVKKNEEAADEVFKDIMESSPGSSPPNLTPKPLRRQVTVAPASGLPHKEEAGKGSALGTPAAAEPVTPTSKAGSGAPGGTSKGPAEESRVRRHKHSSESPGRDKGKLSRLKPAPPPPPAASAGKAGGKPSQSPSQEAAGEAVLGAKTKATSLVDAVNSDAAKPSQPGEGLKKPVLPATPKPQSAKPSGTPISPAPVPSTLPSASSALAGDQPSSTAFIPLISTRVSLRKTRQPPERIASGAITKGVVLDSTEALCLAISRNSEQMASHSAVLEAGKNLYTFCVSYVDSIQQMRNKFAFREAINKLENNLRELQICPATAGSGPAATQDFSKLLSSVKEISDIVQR

[22] = target: Casein kinase I isoform delta (Homo sapiens) (UniProt P48730); experiment: Inhibition of CK1delta (unknown origin) at 10 uM
[23] = target: MAP kinase-interacting serine/threonine-protein kinase 1 (Homo sapiens) (UniProt Q9BUB5); experiment: Inhibition of MNK1 (unknown origin) at 10 uM
Mus musculus [24] = experiment: Toxicity in ICR mouse assessed as mortality at 2000 mg/kg, po administered for 14 days measured on day 15; format: organism-based; details: in vivo, 336 h

Serine/threonine-protein kinase pim-2 (Homo sapiens), sequence (Q9P1W9 whole entry, looked up): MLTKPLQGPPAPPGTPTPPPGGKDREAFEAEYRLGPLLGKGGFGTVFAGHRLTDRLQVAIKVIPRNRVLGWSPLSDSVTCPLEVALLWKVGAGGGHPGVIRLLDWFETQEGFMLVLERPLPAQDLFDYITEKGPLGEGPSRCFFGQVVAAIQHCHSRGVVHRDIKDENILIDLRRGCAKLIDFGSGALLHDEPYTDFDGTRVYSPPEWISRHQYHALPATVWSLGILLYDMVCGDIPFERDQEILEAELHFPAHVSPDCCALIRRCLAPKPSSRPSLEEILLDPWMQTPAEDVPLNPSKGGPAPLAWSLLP

## CN1CCN(CCCOc2ccc(N3C(=O)/C(=C/c4ccc(Oc5ccc(F)cc5)cc4)SC3=S)cc2)CC1
[1]
  inhibition: 0%
Rattus norvegicus [2]
  AUC: 79.4 ng·h/mL
[3]
  inhibition: 5.5%
[4]
  inhibition: 18.4%
[5]
  inhibition: 57.5%
Mus musculus [6]
  Activity: 31.3 g
Homo sapiens
  inhibition: 0%
Mus musculus [7]
  Activity: 21.7 g
[8]
  inhibition: 14.8%
[9]
  inhibition: 14%
[10]
  inhibition: 0%
[11]
  inhibition: 0%
Mus musculus [12]
  Activity: 29.2 g
Mus musculus [13]
  Activity: 26.2 g
Mus musculus [14]
  Activity: 23.2 g
[15]
  Cmax: 8.6 ng/mL
[16]
  inhibition: 24.9%
Rattus norvegicus [17]
  CL: 97.7 mL/min/kg
[18]
  inhibition: 20.5%
[19]
  inhibition: 0%
[20]
  Cmax: 94 ng/mL
[21]
  inhibition: 20%
[22]
  inhibition: 0%
[23]
  inhibition: 0%
Mus musculus [24]
  Activity: Non-toxic
